Results published in US8278345B2, “Inhibitors of glutaminyl cyclase” (Probiodrug AG, priority 2006, dated 2012).

Target: hQC (Homo sapiens, UniProt Q16769)
Assay: Inhibitor assay for glutaminyl cyclase activity (fluorometric, H-Gln-βNA / H-Gln-AMC)
Assay type: biochemical
Conditions: compound from preparative synthesis, purified
In short: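 Ki values came from fitting progress curves to a competitive inhibition model; rapid screens used 4 mM inhibitor with substrate at KM. QC activity was read at 30 °C via auxiliary pyroglutamyl aminopeptidase releasing βNA (0.2 mM H-Gln-βNA, 0.2 M Tris pH 8.0, 20 mM EDTA) or AMC (0.05 M Tris pH 8.0, 5 mM EDTA).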

hQC, sequence (Q16769 29-361): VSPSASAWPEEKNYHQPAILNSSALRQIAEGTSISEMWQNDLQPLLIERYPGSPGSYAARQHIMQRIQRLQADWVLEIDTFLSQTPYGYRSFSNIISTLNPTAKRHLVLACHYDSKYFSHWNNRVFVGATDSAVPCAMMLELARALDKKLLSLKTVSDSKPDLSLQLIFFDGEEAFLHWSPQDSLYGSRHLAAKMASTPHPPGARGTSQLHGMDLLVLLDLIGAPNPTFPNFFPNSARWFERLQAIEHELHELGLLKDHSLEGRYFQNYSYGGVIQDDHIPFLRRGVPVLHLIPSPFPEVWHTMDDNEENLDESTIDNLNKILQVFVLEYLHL

Ki [nM]	Compound
29.2	CC1=C(O)C(=O)N(c2ccc3nc[nH]c3c2)C1c1c(F)cccc1F (centres unmarked) [Compound 473, 1-(1H-benzo[d]imidazol-6-yl)-5-(2,6-difluorophenyl)-3-hydroxy-4-methyl-1H-pyrrol-2(5H)-one]

Same assay, conditions: compound from preparative synthesis, purified; read-out: IC50 hQC

IC50 [nM]	Compound
156	CSCC1=C(O)C(=O)N(c2ccc3[nH]cnc3c2)C1c1cc(Cl)ccc1O (centres unmarked) [Compound 336, 1-(1H-Benzoimidazol-5-yl)-5-(5-chloro-2-hydroxy-phenyl)-3-hydroxy-4-methylsulfanylmethyl-1,5-dihydro-pyrrol-2-one]
134	O=C1C(O)=C(c2c[nH]c3ccccc23)C(c2cccc(Cl)c2)N1CCCn1ccnc1 (centres unmarked) [Compound 143, 5-(3-Chloro-phenyl)-3-hydroxy-1-(3-imidazol-1-yl-propyl)-4-(1H-indol-3-yl)-1,5-dihydro-pyrrol-2-one]
1670	O=C1C(O)=C(c2ccccc2)C(C2CCC=CO2)N1CCCn1ccnc1 (centres unmarked) [Compound 93, 5-(3,4-Dihydro-2H-pyran-2-yl)-3-hydroxy-1-(3-imidazol-1-yl-propyl)-4-phenyl-1,5-dihydro-pyrrol-2-one]
559	O=C1C(O)=C(c2ccc(O)cc2)C(C2CCC=CO2)N1CCCn1ccnc1 (centres unmarked) [Compound 163, 5-(3,4-Dihydro-2H-pyran-2-yl)-3-hydroxy-4-(4-hydroxy-phenyl)-1-(3-imidazol-1-yl-propyl)-1,5-dihydro-pyrrol-2-one]

Same assay, conditions: read-out: IC50

Compound	IC50 [nM]
CC(C)CC(=O)C1=C(O)C(=O)N(c2ccc3[nH]cnc3c2)C1C1CCOC1 (centres unmarked) [Compound 291, 1-(1H-Benzoimidazol-5-yl)-3-hydroxy-4-(3-methyl-butyryl)-5-(tetrahydro-furan-3-yl)-1,5-dihydro-pyrrol-2-one]	490
O=C1C(O)=C(c2ccccc2)C(c2ccco2)N1CCCn1ccnc1 (centres unmarked) [Compound 106, 5-Furan-2-yl-3-hydroxy-1-(3-imidazol-1-yl-propyl)-4-phenyl-1,5-dihydro-pyrrol-2-one]	40
CSCC1=C(O)C(=O)N(c2ccc3[nH]cnc3c2)C1c1cc(Cl)ccc1O (centres unmarked) [Compound 336, 1-(1H-Benzoimidazol-5-yl)-5-(5-chloro-2-hydroxy-phenyl)-3-hydroxy-4-methylsulfanylmethyl-1,5-dihydro-pyrrol-2-one]	310
O=C1C(O)=C(c2c[nH]c3ccccc23)C(c2cccc3cccnc23)N1c1ccc2[nH]cnc2c1 (centres unmarked) [Compound 281, 1-(1H-Benzoimidazol-5-yl)-3-hydroxy-4-(1H-indol-3-yl)-5-quinolin-8-yl-1,5-dihydro-pyrrol-2-one]	5890
CC1=C(O)C(=O)N(CCCn2ccnc2)C1c1cccc(Cl)c1 (centres unmarked) [Compound 50, 5-(3-Chloro-phenyl)-3-hydroxy-1-(3-imidazol-1-yl-propyl)-4-methyl-1,5-dihydro-pyrrol-2-one]	400
O=C(O)c1ccc(C2C(c3ccc(O)cc3)=C(O)C(=O)N2c2ccc3[nH]cnc3c2)o1 (centres unmarked) [Compound 389, 5-[1-(1H-Benzoimidazol-5-yl)-4-hydroxy-3-(4-hydroxy-phenyl)-5-oxo-2,5-dihydro-1H-pyrrol-2-yl]-furan-2-carboxylic acid]	220
CC(=O)C1=C(O)C(=O)N(c2ccc3[nH]cnc3c2)C1C1CCOC1 (centres unmarked) [Compound 314, 4-Acetyl-1-(1H-benzoimidazol-5-yl)-3-hydroxy-5-(tetrahydro-furan-3-yl)-1,5-dihydro-pyrrol-2-one]	4810
CCCCCC1=C(O)C(=O)N(CCCn2ccnc2)C1CCCCC (centres unmarked) [Compound 196, 3-Hydroxy-1-(3-imidazol-1-yl-propyl)-4,5-dipentyl-1,5-dihydro-pyrrol-2-one]	40
CCC1=C(O)C(=O)N(c2ccc3[nH]cnc3c2)C1c1cc(F)cc(F)c1F (centres unmarked) [Compound 315, 1-(1H-Benzoimidazol-5-yl)-4-ethyl-3-hydroxy-5-(2,3,5-trifluoro-phenyl)-1,5-dihydro-pyrrol-2-one]	1480
O=C(C1=C(O)C(=O)N(c2ccc3[nH]cnc3c2)C1c1ccc[nH]1)C1CCCCC1 (centres unmarked) [Compound 452, 1-(1H-Benzoimidazol-5-yl)-3-cyclohexanecarbonyl-4-hydroxy-1,2-dihydro-1′H-[2,2′]bipyrrolyl-5-one]	5080
CC(=O)C1=C(O)C(=O)N(c2ccc3[nH]cnc3c2)C1C1COC(C)(C)O1 (centres unmarked) [Compound 295, 4-Acetyl-1-(1H-benzoimidazol-5-yl)-5-(2,2-dimethyl-[1,3]dioxolan-4-yl)-3-hydroxy-1,5-dihydro-pyrrol-2-one]	9850
O=C1C(O)=C(c2ccc(O)cc2)C(c2cccc(O)c2)N1CCCn1ccnc1 (centres unmarked) [Compound 182, 3-Hydroxy-5-(3-hydroxy-phenyl)-4-(4-hydroxy-phenyl)-1-(3-imidazol-1-yl-propyl)-1,5-dihydro-pyrrol-2-one]	40
CCCCCC1=C(O)C(=O)N(CCCn2ccnc2)C1c1c[nH]c2cc(C)ccc12 (centres unmarked) [Compound 202, 3-Hydroxy-1-(3-imidazol-1-yl-propyl)-5-(6-methyl-1H-indol-3-yl)-4-pentyl-1,5-dihydro-pyrrol-2-one]	40
CC(C)C1=C(O)C(=O)N(CCCn2ccnc2)C1c1cc[nH]n1 (centres unmarked) [Compound 56, 3-Hydroxy-1-(3-imidazol-1-yl-propyl)-4-isopropyl-5-(1H-pyrazol-3-yl)-1,5-dihydro-pyrrol-2-one]	2200
CC1=C(O)C(=O)N(c2ccc3nc[nH]c3c2)C1c1c(F)cccc1F (centres unmarked) [Compound 473, 1-(1H-benzo[d]imidazol-6-yl)-5-(2,6-difluorophenyl)-3-hydroxy-4-methyl-1H-pyrrol-2(5H)-one]	259
Cc1ccc2occ(C3C(C(C)C)=C(O)C(=O)N3c3ccc4[nH]cnc4c3)c(=O)c2c1 (centres unmarked) [Compound 331, 1-(1H-Benzoimidazol-5-yl)-3-hydroxy-4-isopropyl-5-(6-methyl-4-oxo-4H-chromen-3-yl)-1,5-dihydro-pyrrol-2-one]	1390
CCCCC1C(CC)=C(O)C(=O)N1CCCn1ccnc1 (centres unmarked) [Compound 248, 5-Butyl-4-ethyl-3-hydroxy-1-(3-imidazol-1-yl-propyl)-1,5-dihydro-pyrrol-2-one]	2200
CCC1=C(O)C(=O)N(c2ccc3[nH]cnc3c2)C1c1ccc2nonc2c1 (centres unmarked) [Compound 431, 1-(1H-Benzoimidazol-5-yl)-5-(benzo[c][1,2,5]oxadiazol-5-yl)-4-ethyl-3-hydroxy-1,5-dihydro-pyrrol-2-one]	2110
CC1=C(O)C(=O)N(CCCn2ccnc2)C1c1ccc(CO)o1 (centres unmarked) [Compound 32, 3-Hydroxy-5-(5-hydroxymethyl-furan-2-yl)-1-(3-imidazol-1-yl-propyl)-4-methyl-1,5-dihydro-pyrrol-2-one]	1300

Further molecules by falling IC50, results first:

IC50 [nM]	Compound
5530	CC(C)C1=C(O)C(=O)N(c2ccc3[nH]cnc3c2)C1c1ccco1 (centres unmarked) [Compound 371, 1-(1H-Benzoimidazol-5-yl)-5-furan-2-yl-3-hydroxy-4-isopropyl-1,5-dihydro-pyrrol-2-one]
4540	O=C(O)CC1=C(O)C(=O)N(c2ccc3[nH]cnc3c2)C1c1c(F)ccc(Cl)c1F (centres unmarked) [Compound 358, [1-(1H-Benzoimidazol-5-yl)-2-(3-chloro-2,6-difluoro-phenyl)-4-hydroxy-5-oxo-2,5-dihydro-1H-pyrrol-3-yl]-acetic acid]
4090	CC(C)C1=C(O)C(=O)N(c2ccc3[nH]cnc3c2)C1c1ccsc1 (centres unmarked) [Compound 348, 1-(1H-Benzoimidazol-5-yl)-3-hydroxy-4-isopropyl-5-thiophen-3-yl-1,5-dihydro-pyrrol-2-one]
4090	CC(C)(C)C(=O)C1=C(O)C(=O)N(c2ccc3[nH]cnc3c2)C1c1ccco1 (centres unmarked) [Compound 419, 1-(1H-Benzoimidazol-5-yl)-4-(2,2-dimethyl-propionyl)-5-furan-2-yl-3-hydroxy-1,5-dihydro-pyrrol-2-one]
3100	CCC1=C(O)C(=O)N(CCCn2ccnc2)C1/C=C/C(C)C (centres unmarked) [Compound 226, 4-Ethyl-3-hydroxy-1-(3-imidazol-1-yl-propyl)-5-(3-methyl-but-1-enyl)-1,5-dihydro-pyrrol-2-one]
2920	CCC1=C(O)C(=O)N(c2ccc3[nH]cnc3c2)C1c1ccnc2ccccc12 (centres unmarked) [Compound 302, 1-(1H-Benzoimidazol-5-yl)-4-ethyl-3-hydroxy-5-quinolin-4-yl-1,5-dihydro-pyrrol-2-one]
2560	O=C(C1=C(O)C(=O)N(c2ccc3[nH]cnc3c2)C1c1ccc(Cl)c(C(F)(F)F)c1)C1CCCCC1 (centres unmarked) [Compound 454, 1-(1H-Benzoimidazol-5-yl)-5-(4-chloro-3-trifluoromethyl-phenyl)-4-cyclohexanecarbonyl-3-hydroxy-1,5-dihydro-pyrrol-2-one]
2200	O=C(O)CC1=C(O)C(=O)N(c2ccc3[nH]cnc3c2)C1c1cc(Br)ccc1F (centres unmarked) [Compound 338, [1-(1H-Benzoimidazol-5-yl)-2-(5-bromo-2-fluoro-phenyl)-4-hydroxy-5-oxo-2,5-dihydro-1H-pyrrol-3-yl]-acetic acid]
1300	O=C1C(O)=C(c2c[nH]c3ccccc23)C(c2ncc[nH]2)N1CCCn1ccnc1 (centres unmarked) [Compound 133, 3-Hydroxy-5-(1H-imidazol-2-yl)-1-(3-imidazol-1-yl-propyl)-4-(1H-indol-3-yl)-1,5-dihydro-pyrrol-2-one]
400	Cc1ccc(C2C(C(C)C)=C(O)C(=O)N2CCCn2ccnc2)cc1C (centres unmarked) [Compound 61, 5-(3,4-Dimethyl-phenyl)-3-hydroxy-1-(3-imidazol-1-yl-propyl)-4-isopropyl-1,5-dihydro-pyrrol-2-one]
400	CCCCCC1=C(O)C(=O)N(CCCn2ccnc2)C1c1cc[nH]n1 (centres unmarked) [Compound 188, 3-Hydroxy-1-(3-imidazol-1-yl-propyl)-4-pentyl-5-(1H-pyrazol-3-yl)-1,5-dihydro-pyrrol-2-one]
40	CCC/C=C/C1C(c2ccccc2)=C(O)C(=O)N1CCCn1ccnc1 (centres unmarked) [Compound 78, 3-Hydroxy-1-(3-imidazol-1-yl-propyl)-5-(pent-1-enyl)-4-phenyl-1,5-dihydro-pyrrol-2-one]
40	O=C1C(O)=C(c2c[nH]c3ccccc23)C(c2cccc(Cl)c2)N1CCCn1ccnc1 (centres unmarked) [Compound 143, 5-(3-Chloro-phenyl)-3-hydroxy-1-(3-imidazol-1-yl-propyl)-4-(1H-indol-3-yl)-1,5-dihydro-pyrrol-2-one]
40	CCCC1C(c2ccc(O)cc2)=C(O)C(=O)N1CCCn1ccnc1 (centres unmarked) [Compound 150, 3-Hydroxy-4-(4-hydroxy-phenyl)-1-(3-imidazol-1-yl-propyl)-5-propyl-1,5-dihydro-pyrrol-2-one]
40	O=C1C(O)=C(c2ccccc2)C(C2CCC=CO2)N1CCCn1ccnc1 (centres unmarked) [Compound 93, 5-(3,4-Dihydro-2H-pyran-2-yl)-3-hydroxy-1-(3-imidazol-1-yl-propyl)-4-phenyl-1,5-dihydro-pyrrol-2-one]
40	O=C1C(O)=C(c2ccc(O)cc2)C(C2CCC=CO2)N1CCCn1ccnc1 (centres unmarked) [Compound 163, 5-(3,4-Dihydro-2H-pyran-2-yl)-3-hydroxy-4-(4-hydroxy-phenyl)-1-(3-imidazol-1-yl-propyl)-1,5-dihydro-pyrrol-2-one]
40	O=C1C(O)=C(c2ccc(O)cc2)C(c2ccc(O)cc2)N1CCCn1ccnc1 (centres unmarked) [Compound 181, 3-Hydroxy-4,5-bis-(4-hydroxy-phenyl)-1-(3-imidazol-1-yl-propyl)-1,5-dihydro-pyrrol-2-one]
